Experiment: xn = mol fraction of the nth substance listed

[Li+].[OH-] + O
viscosity [mPa·s], 101 kPa
Conditions	x1 = 0.0089	x1 = 0.02284	x1 = 0.0263	x1 = 0.0385	x1 = 0.0513	x1 = 0.075	x1 = 0.0776	x1 = 0.08062
298.15 K	–	1.245	–	1.602	–	–	–	3.29
308.15 K	–	0.996	–	1.261	–	–	–	2.467
323.15 K	0.609	0.748	0.778	0.931	1.114	1.596	1.66	1.743

C=C(C)C(=O)O + O=C1CCCCC1
viscosity [mPa·s], 101 kPa
Conditions	x2 = 0.1	x2 = 0.2	x2 = 0.3	x2 = 0.4	x2 = 0.5	x2 = 0.5999	x2 = 0.7	x2 = 0.8	x2 = 0.9
298.15 K	1.369	1.528	1.659	1.809	1.901	1.949	1.999	2.045	2.037
308.15 K	1.159	1.281	1.389	1.508	1.583	1.616	1.651	1.683	1.684
318.15 K	0.999	1.101	1.183	1.275	1.33	1.359	1.395	1.424	1.422

O=[N+]([O-])c1ccccc1 + O=C1CCCCC1
Conditions	viscosity [mPa·s]
298.15 K, 101.3 kPa, x2 = 0.1946	1.785

CCOCCOCCO + O=C1CCCN1
298.15 K, 101 kPa
Conditions	viscosity [mPa·s]
x1 = 0.0021	14.17
x1 = 0.004	14.1
x1 = 0.0086	14
x1 = 0.0117	13.9
x1 = 0.0212	13.57
x1 = 0.0348	13.2
x1 = 0.0525	12.63
x1 = 0.0788	12.03
x1 = 0.108	11.37
x1 = 0.1478	10.61
x1 = 0.1914	9.859
x1 = 0.2318	9.217
x1 = 0.2798	8.602
x1 = 0.3222	8.116
x1 = 0.3673	7.637
x1 = 0.4326	7.009
x1 = 0.4635	6.788
x1 = 0.5199	6.331
x1 = 0.5639	6.038
x1 = 0.6088	5.76
x1 = 0.6756	5.37
x1 = 0.7363	5.074
x1 = 0.7879	4.842
x1 = 0.8388	4.665
x1 = 0.8795	4.494
x1 = 0.9249	4.308
x1 = 0.9572	4.175
x1 = 0.977	4.003
x2 = 0.0069	3.885
